{
  "source": "paper PMC6383986",
  "about": "“Fragment-Based Covalent Ligand Screening Enables Rapid Discovery of Inhibitors for the RBR E3 Ubiquitin Ligase HOIP” (Journal of the American Chemical Society, 2019)",
  "key": {"IRAK4": {"target": "T1, IRAK4 (Homo sapiens, UniProt Q9NWZ3)", "T1 construct": "recombinant full length IRAK4-FLAG; His6 (with the rest of the FlagHisAvi vector tag) (C, cleaved yes); made in house; host or cells: Sf9 insect cells (baculovirus)", "T1 sequence (Q9NWZ3 whole entry)": "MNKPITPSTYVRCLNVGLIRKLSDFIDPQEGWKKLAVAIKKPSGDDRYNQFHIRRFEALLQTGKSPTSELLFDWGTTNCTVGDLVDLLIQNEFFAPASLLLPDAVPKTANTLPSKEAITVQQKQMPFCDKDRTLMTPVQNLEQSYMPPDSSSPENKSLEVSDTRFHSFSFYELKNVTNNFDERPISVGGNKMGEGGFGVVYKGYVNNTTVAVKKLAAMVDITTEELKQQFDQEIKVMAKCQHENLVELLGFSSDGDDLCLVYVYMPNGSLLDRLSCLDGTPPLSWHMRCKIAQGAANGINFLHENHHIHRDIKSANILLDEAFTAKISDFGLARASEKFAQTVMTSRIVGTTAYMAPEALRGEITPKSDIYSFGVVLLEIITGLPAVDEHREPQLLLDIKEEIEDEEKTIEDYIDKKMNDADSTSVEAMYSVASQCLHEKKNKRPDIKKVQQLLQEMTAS", "test": "IMAP-FP IRAK4 substrate phosphorylation assay", "type": "biochemical"}, "[1]": {"system": "NF-κB activation in HEK293T cells overexpressing full length HOIP, HOIL-1L, and SHARPIN", "test": "NF-κB Luciferase reporter assay", "type": "cell-based", "details": "Homo sapiens, HEK-293T; overnight (17 h) treatment; estimated; read-out: IC50, inhibition of NF-κB activation", "method": "suspensions were agitated at 4 °C overnight. The supernatants were removed and kept on ice, and the beads were washed with wash buffer (2 × 0.5 mL), PBS (2 × 0.5 mL), and 50 mM HEPES, 150 mM NaCl, pH 7.5 buffer (2 × 0.5 mL).\nA polyubiquitination assay master mix was prepared by mixing E1, UbcH7, ubiquitin, MgCl2, in buffer (50 mM HEPES, 150 mM NaCl, pH 7.5). The solution (30 µL per sample) was added to the beads, and lastly ATP (0.6 µL of 100 mM stock) was added to initiate the reaction. Final concentrations were E1 (0.2 µM), UbcH7 E2 (1 µM), ubiquitin (10 µM), MgCl2 (4 mM), ATP (2 mM). The vials were incubated (Eppendorf Thermomixer) at 25 °C, 900 rpm for 1.5 h. […] All samples were analyzed by SDS PAGE and Western Blot (Figure 6C and Supplementary Figure S13) as described in sections 4.5 and 4.6. […]\nReporter assays: After incubating the plates for 17 h, Firefly and Renilla Luciferase activity was analyzed using the Dual-Luciferase® Reporter Assay System (Promega) and a BertholdTech […]\nwith Mikrowin 2000 software version 4.41: using its injectors to inject 100 µL LAR II and 100 µL Stop&Glo (see manufacturer’s instructions; Promega #E1960). NF-κB regulated luciferase activity was first normalized to Renilla luciferase activity and then the fold activation relative to cells transfected with empty vector calculated. […]\nreader. […]"}},
  "data": [
    {"smiles": "COC(=O)/C=C/CNC(=O)c1cc2c([nH]c1=O)CCCC2", "note": "[Compound 11a]", "values": [
      {"measurement": "IC50", "setting": "IRAK4; 1 h preincubation, 6 nM IRAK4, 50 μM ATP", "value": "> 200", "unit": "µM"},
      {"measurement": "inhibition of IRAK4 substrate phosphorylation", "setting": "IRAK4; concentrations up to 200 μM", "value": "no inhibition"},
      {"measurement": "IC50", "setting": "[1]", "value": "37 ± 4", "unit": "µM"}
    ]}
  ]
}
